The target in data set [1] is human GnRH receptor1 (GnRHR1) (Homo sapiens (Human), UniProt P30968). The data set can be described thus: Assay of GnRH antagonizing effect: inhibition of GnRH-stimulated intracellular calcium flux in HEK293 cells transiently expressing human GnRHR1. It counts as cell-based. To be noted: 5 nM GnRH, FLIPR calcium dye, read-out: IC50 (drug concentration at which 50% GnRH-stimulated intracellular calcium flux was inhibited). The source says: 1) Cloning and Construction of the Vector Expressing Human GnRH Receptor1 (GnRHR1)
Sequence of human GnRH receptor1 (GnRHR1) (P30968 whole entry, the tested form may be a part): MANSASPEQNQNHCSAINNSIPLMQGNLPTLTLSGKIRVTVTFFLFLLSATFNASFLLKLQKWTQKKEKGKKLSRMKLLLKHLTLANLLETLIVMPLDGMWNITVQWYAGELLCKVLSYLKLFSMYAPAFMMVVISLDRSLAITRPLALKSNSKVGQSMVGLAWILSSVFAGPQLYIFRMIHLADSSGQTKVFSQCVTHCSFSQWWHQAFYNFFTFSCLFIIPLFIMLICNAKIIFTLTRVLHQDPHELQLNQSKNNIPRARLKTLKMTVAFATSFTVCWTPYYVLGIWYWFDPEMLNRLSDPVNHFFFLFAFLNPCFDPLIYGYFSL
Using cDNA deprived from human pituitary (BECTON DICKINSON) as a template, the DNA fragment coding 45 to 1115 bp of human GnRHR1 (Accession No. L03380), which was reported by Kakar et al., was amplified by PCR method and inserted into the multi-cloning site of pcDNA3.1(+) (Invitrogen). The DNA sequence inserted was perfectly matched to the previously reported sequence.
2) Preparation of HEK293 (Human Embryonic Kidney) Cells Expressing Human GnRH Receptor1
The expression vector introduced human GnRHR1 gene was transfected into cultured HEK293 cells (medium : MEM, 10% FCS, containing antibiotics, non-essential amino acids and pyruvic acid) by means of lipofection with the use of Lipofectamine2000 (Invitrogen). After transfection, the cells were cultured for 2 days, and used for examinations.
3) Assay of GnRH Antagonizing Effect
Antagonizing effect of compounds for human GnRHR1 was evaluated by change of calcium levels in GnRH-stimulated cells. After removing the culture medium of HEK293 cells transiently expressing human GnRHR1, cells were washed with 200 μL piper well of the washing buffer (Hank's Balanced Salt Solutions, 20 mM N-2-hydroxyethylpiperazine-N′-2-ethanesulfonic acid, 1.3 mM calcium chloride, 0.5 mM magnesium chloride, 0.4 mM magnesium sulfate). One hundred μL of the Ca^2+sensitive dye solution (FLIPR Calcium Assay Kit (Molecular Devices)) was added to the well, and the cells were incubated for 1 hour at 37° C., 5% CO2. Then, intracellular calcium levels were determined under the following condition by using FLEX STATION (Molecular Devices). In the equipment, which was warmed to 37° C., 50 μL of test compound diluted with the measurement buffer (the washing buffer with 0.1% Albumin bovine serum) was added to the well. After 1 minute, 50 μL of 5 nM GnRH was added to the well. The drug concentration, at which 50% GnRH-stimulated intracellular calcium flux was inhibited (IC50 value), was calculated using logit plot (Table 108).

Data set [2] is described as follows: Assay for oral absorbability: plasma drug concentration in rats after intravenous (1 mg/kg) and oral (3 mg/kg) administration (Cmax, bioavailability, C360). Format: in vivo. To be noted: SD rats; for blood concentration 6 hours after oral administration, sustainability (in words) / availability by oral administration (in words): oral 3 mg/kg; for blood concentration 6 hours after oral administration, sustainability (in words): 360 minutes, compared with Control compounds 1 and 2; for availability by oral administration (in words): compared with the compounds of Example 22 (sulfonamide) and Example 95 (amide); for Cmax / bioavailability: male, rat, plasma; for Cmax / C360 (plasma drug concentration at 360 minutes after administration): oral administration, 3 mg/kg; for Cmax: read-out: Cmax (maximum plasma drug concentration); for C360 (plasma drug concentration at 360 minutes after administration): class symbols; for bioavailability: oral 3 mg/kg vs intravenous 1 mg/kg. On the procedure: Assay for Oral Absorbability
1) Preparation of the Samples for Measurement of the Drug Concentration After Intravenous Injection to the Tail Vein
As experimental animal, overnight fasted SD rats (Charles River, male, 7 weeks of age, 170-210 g) were used. One mg of a test compound was dissolved by adding 0.2 mL of N,N-dimethylacetoamide, 0.798 mL of saline and 0.002 mL of 2N NaOH, and then 1.0 mg/mL solution was prepared. The body weights of rats were measured, and the solution of the test compound was injected intravenously to the tail vein of unanesthetized rats at the dose of 1 mL/kg (1 mg/kg). The intravenous injection to the tail vein was performed with 26 G injection needle and 1 mL syringe. The sampling times for collection of blood were 2, 15, 60, 120, 240 and 360 minutes after the intravenous injection to the tail vein. The blood was centrifuged, and the plasma was used as the sample for measurement of the drug concentration in blood.
2) Preparation of the Samples for Measurement of the Drug Concentration After Oral Administration
As experimental animal, overnight fasted SD rats (Charles River, male, 7 weeks of age, 170-210 g) were used. Three mg of a test compound was dissolved by adding 0.2 mL of N,N-dimethylacetoamide, 9.794 mL of 0.5% aqueous sodium methylcellulose solution and 0.006 mL of 2N NaOH, and then 0.3 mg/mL solution was prepared. The body weights of rats were measured, and the solution of the test compound was administered orally at the dose of 10 mL/kg (3 mg/kg). The oral administration was performed with gastric tube for rat and 2.5 mL syringe. The sampling times for collection of blood were 15, 30, 60, 120, 240 and 360 minutes after the oral administration. The blood was centrifuged, and the plasma was used as the sample for measurement of the drug concentration in blood.
3) Measurement of the Drug Concentration
To 0.025 mL of the plasma obtained in 1) and 2) described above, 0.1 mL of an adequate internal standard material was added according to the usual method, and then deproteinization was performed by adding 0.875 mL of acetonitrile. After centrifugation, 0.005 mL of the supernatant was injected into LC-MS/MS. The drug concentration in plasma was measured by LC-MS/MS method under the conditions as follows. To 0.05 mL of the blank plasma were added the internal standard material and various test compounds adequately according to the usual method, similar operating described above was done, and then the standard curves were prepared.
Each area under the plasma drug concentration-time curve by intravenous injection to the tail vein and oral administration of the test compound was estimated with WinNonlin Professional by Pharsight Corporation from the plasma drug concentration at each time obtained from the above mentioned method, and then the bioavailability (%) was calculated based on the following formula.
Bioavailability (%)={[(Area under the plasma drug concentration-time curve by oral administration)/3]/(area under the plasma drug concentration -time curve by intravenous injection to the tail vein)}×100
In the oral administration, the maximum plasma drug concentration (Cmax), bioavailability and the plasma drug concentration at 360 minutes after administration (C360) are shown in Tables 110 to 112.

SMILES strings stand for the structures.

Take `CC(C)(C(=O)c1ccc(Cl)c(-n2c(=O)[nH]c3csc(C(=O)O)c3c2=O)c1)c1ccccc1` [Example 146]: the IC50 in data set [1] is 10 nM. In addition, in data set [2], the “blood concentration 6 hours after oral administration, sustainability (in words)” value (from here on “blood concentration 6 hours”) is listed as “maintain their blood concentrations 6 hours after the oral administrations”; the “availability by oral administration (in words)” value (from here on “availability … (in words)”) is “more excellent availability”; the Cmax turned out to be 17900 ng/mL; the “C360 (plasma drug concentration at 360 minutes after administration)” value is given as “A (A: >1000 ng/mL)”.
As for `COc1cc(F)c(-n2c(=O)[nH]c3csc(C(=O)O)c3c2=O)cc1OCc1c(OC)ccc(F)c1F` [Example 233, 5-Carboxy-3-[2-fluoro-5-(2,3-difluoro-6-methoxybenzyloxy) -4-methoxyphenyl]thieno[3,4-d]pyrimidine-2,4(1H,3H)-dione], the IC50 in data set [1] is 15 nM. Further, in data set [2], the “blood concentration 6 hours” value is listed as “maintain their blood concentrations 6 hours after the oral administrations”; the “availability … (in words)” value is listed as “more excellent availability”; the Cmax came to 25000 ng/mL; the “C360 (plasma drug concentration at 360 minutes after administration)” value is reported as “A (A: >1000 ng/mL)”.
With `COc1cccc(F)c1C(C)Oc1ccc(F)c(-n2c(=O)[nH]c3csc(C(=O)O)c3c2=O)c1` (stereo not drawn) [Example 48, 5-Carboxy-3-{2-fluoro-5-[1-(2-fluoro-6-methoxyphenyl) -ethoxy]phenyl}[3,4-d]pyrimidine-2,4(1H,3H)-dione], in data set [1], the IC50 stood at 29 nM. For the same compound, in data set [2], the “availability … (in words)” value is listed as “more excellent availability”, the bioavailability is 65% and the Cmax turned out to be 14500 ng/mL.
Regarding `COc1ccc(F)cc1C(C)(C)Sc1ccc(F)c(-n2c(=O)[nH]c3csc(C(=O)O)c3c2=O)c1` [Example 191], the IC50 in data set [1] was 17 nM. In addition, in data set [2], the “availability … (in words)” value was “more excellent availability” and the Cmax is 13500 ng/mL.
As to `O=c1[nH]c2ccsc2c(=O)n1-c1cc(S(=O)(=O)N2CCCc3ccccc32)ccc1Cl` [Example 2], the IC50 in data set [1] came to 199 nM.
Turning to `COc1cc(F)c(-n2c(=O)[nH]c3csc(C(=O)O)c3c2=O)cc1COc1c(OC)ccc(F)c1F` [Example 414], the IC50 in data set [1] came to 42 nM. In addition, in data set [2], the “blood concentration 6 hours” value is recorded as “maintain their blood concentrations 6 hours after the oral administrations”; the “availability … (in words)” value is “more excellent availability”; the Cmax stood at 25600 ng/mL; the “C360 (plasma drug concentration at 360 minutes after administration)” value was “A (A: >1000 ng/mL)”.
For the compound `CC(C)(c1ccccc1)S(=O)(=O)c1ccc(F)c(-n2c(=O)[nH]c3csc(C(=O)O)c3c2=O)c1` [Example 202, 5-Carboxy-3-[2-fluoro-5-(1-methyl-1-phenylethylsulfonyl) -phenyl]thieno[3,4-d]pyrimidine-2,4(1H,3H)-dione], in data set [1], the IC50 came to 20 nM. Further, in data set [2], the “blood concentration 6 hours” value is on record as “maintain their blood concentrations 6 hours after the oral administrations”; the “availability … (in words)” value is “more excellent availability”; the Cmax was 1310 ng/mL; the “C360 (plasma drug concentration at 360 minutes after administration)” value is listed as “B (B: 300 ng/mL to 1000 ng/mL)”.
For `COCCOc1ccc(F)c(F)c1COc1ccc(F)c(-n2c(=O)[nH]c3csc(C(=O)O)c3c2=O)c1` [Example 367], in data set [1], the IC50 was determined as 15 nM. In addition, in data set [2], the “blood concentration 6 hours” value is recorded as “maintain their blood concentrations 6 hours after the oral administrations”; the “availability … (in words)” value is “more excellent availability”; the Cmax was found to be 14100 ng/mL; the “C360 (plasma drug concentration at 360 minutes after administration)” value is listed as “A (A: >1000 ng/mL)”.
Take `Cc1ccccc1COc1ccc(Cl)c(-n2c(=O)[nH]c3csc(C(=O)O)c3c2=O)c1` [Example 25]: the IC50 in data set [1] worked out at 85 nM.
As for `Cc1cccc(N(C)S(=O)(=O)c2ccc(Cl)c(-n3c(=O)[nH]c4sccc4c3=O)c2)c1` [Example 17], the IC50 in data set [1] was determined as 101 nM.
Regarding `CN(C(=O)c1ccc(Cl)c(-n2c(=O)[nH]c3csc(C(=O)O)c3c2=O)c1)c1ccccc1` [Example 95], in data set [1], the IC50 is 19 nM. Further, the Cmax in data set [2] is 322 ng/mL.
For `CNC(=O)c1scc2[nH]c(=O)n(-c3cc(S(=O)(=O)N4CCCc5ccccc54)ccc3Cl)c(=O)c12` [Example 31, 5-Methylcarbamoyl-3-[2-chloro-5-(3,4-dihydroquinolin-1(2H) -ylsulfonyl)phenyl]thieno[3,4-d]pyrimidine-2,4(1H,3H)-dione], the IC50 in data set [1] was found to be 272 nM.
Consider `O=C(O)c1scc2[nH]c(=O)n(-c3cc(S(=O)(=O)N4CCCc5ccccc54)ccc3Cl)c(=O)c12` [Example 22, 5-Carboxy-3-[2-chloro-5-(3,4-dihydroquinolin-1(2H)-yl-sulfonyl)phenyl]thieno[3,4-d]pyrimidine-2,4(1H,3H)-dione], for which the IC50 in data set [1] turned out to be 2 nM. Also, in data set [2], the bioavailability stood at 11% and the Cmax stood at 342 ng/mL.
Take `CC(C)(Oc1ccc(Cl)c(-n2c(=O)[nH]c3csc(C(=O)O)c3c2=O)c1)c1ccccc1` [Example 271]: in data set [2], the “blood concentration 6 hours” value is on record as “maintain their blood concentrations 6 hours after the oral administrations”; the “availability … (in words)” value is reported as “more excellent availability”; the Cmax came out at 17600 ng/mL; the “C360 (plasma drug concentration at 360 minutes after administration)” value was “A (A: >1000 ng/mL)”.
Turning to `O=c1[nH]c2sccc2c(=O)n1-c1cc(S(=O)(=O)N2CCCc3ccccc32)ccc1Cl` [Example 3], the IC50 in data set [1] came to 80 nM.
Turning to `COc1cc(F)c(-n2c(=O)[nH]c3csc(C(=O)O)c3c2=O)cc1CN(C)c1c(F)cccc1F` [Example 420], the IC50 in data set [1] was determined as 29 nM. Besides, in data set [2], the “blood concentration 6 hours” value is recorded as “maintain their blood concentrations 6 hours after the oral administrations”; the “availability … (in words)” value is given as “more excellent availability”; the Cmax stood at 15200 ng/mL; the “C360 (plasma drug concentration at 360 minutes after administration)” value is “B (B: 300 ng/mL to 1000 ng/mL)”.

A word on the bioavailability: it is dose-corrected exposure relative to a reference, in per cent. A higher bioavailability goes with much systemic uptake.

These data come from US9040693B2, “Fused heterocyclic derivative, medicinal composition containing the same, and medicinal use thereof” (KISSEI PHARMACEUTICAL CO., LTD., priority 2005, dated 2015).
